From PMC6540285, “Evaluation of Protein Kinase Inhibitors with PLK4 Cross-Over Potential in a Pre-Clinical Model of Cancer” (International Journal of Molecular Sciences, 2019)
pIC50: −log10 of the molar value. Read-outs that look alike come from different tables or passages of the source.

Assays:
[1] = target: FLT3 (Homo sapiens, UniProt P36888); experiment: SelectScreen kinase profiling, ZLYTE; format: biochemical; details: FLT3, 10 µM
[2] = target: ULK3 (Homo sapiens, UniProt Q6PHR2); experiment: SelectScreen kinase profiling, LanthaScreen binding; details: ULK3, 10 µM
[3] = target: CDK1/cyclin B (Homo sapiens, UniProt P06493); experiment: SelectScreen kinase profiling, ZLYTE; format: biochemical
[4] = target: PIK3CA E545K/PIK3R1 (p110 alpha E545K/p85 alpha) (Homo sapiens, UniProt P42336, E545K); experiment: SelectScreen kinase profiling, Adapta; format: biochemical; details: PIK3CA E545K/PIK3R1, 10 µM
[5] = tested on: BT-16 cells; experiment: PrestoBlue Cell Viability assay; format: cell-based; details: BT-16, read-out: PB: IC50 of the PrestoBlue Viability assay
Protocol: (§1) Cell viability was assessed using the Presto Blue™ Cell Viability reagent (Thermo Fisher Scientific, Carlsbad, CA, USA) following the manufacturer’s instructions. Cells were plated in 96-well plates at the same densities described above for the proliferation assay. The fluorescence was measured after 24, 48, 72, and 96 h at concentrations ranging from 0.001 to 10 µM of the inhibitor. All assays were performed in triplicate.

[6] = tested on: MON cells; experiment: PrestoBlue Cell Viability assay; format: cell-based; details: read-out: PB: IC50 of the PrestoBlue Viability assay
Protocol: as §1

[7] = tested on: D283 cells; experiment: PrestoBlue Cell Viability assay; format: cell-based; details: D283, read-out: PB: IC50 of the PrestoBlue Viability assay
Protocol: as §1

[8] = tested on: BT-16 cells; format: cell-based; details: BT-16, read-out: MTT: IC50 of the proliferation assay
[9] = target: TGFBR1 (ALK5) (Homo sapiens, UniProt P36897); experiment: SelectScreen kinase profiling, LanthaScreen binding
Description: Kinase Technology % Inhibition Avg Kinase Technology % Inhibition Avg

[10] = target: IRAK1 (Homo sapiens, UniProt P51617); experiment: SelectScreen kinase profiling, Adapta; format: biochemical; details: IRAK1, 10 µM
[11] = target: PIK3C2B (PI3K-C2 beta) (Homo sapiens, UniProt O00750); experiment: SelectScreen kinase profiling, Adapta; format: biochemical
[12] = target: FRAP1 (mTOR) (Homo sapiens, UniProt P42345); experiment: SelectScreen kinase profiling, ZLYTE; format: biochemical
[13] = target: HUNK (Homo sapiens, UniProt P57058); experiment: SelectScreen kinase profiling, LanthaScreen binding
[14] = target: MET (cMet) Y1235D (Homo sapiens, UniProt P08581, Y1235D); experiment: SelectScreen kinase profiling, ZLYTE; format: biochemical
[15] = target: AMPK (A1/B2/G2) (Homo sapiens, UniProt Q13131); experiment: SelectScreen kinase profiling, ZLYTE; format: biochemical
[16] = target: RET G691S (Homo sapiens, UniProt P07949, G691S); experiment: SelectScreen kinase profiling, LanthaScreen binding
[17] = target: LCK (Homo sapiens, UniProt P06239); experiment: SelectScreen kinase profiling, ZLYTE; format: biochemical
[18] = target: EEF2K (Homo sapiens, UniProt O00418); experiment: SelectScreen kinase profiling, ZLYTE; format: biochemical
[19] = target: CDK11 (Inactive) (Homo sapiens, UniProt Q9BWU1); experiment: SelectScreen kinase profiling, LanthaScreen binding
[20] = target: EPHA7 (Homo sapiens, UniProt Q15375); experiment: as above; details: EPHA7, 10 µM
[21] = target: ALK L1196M (Homo sapiens, UniProt Q9UM73, L1196M); experiment: as above
[22] = target: PIK3C2A (PI3K-C2 alpha) (Homo sapiens, UniProt O00443); experiment: SelectScreen kinase profiling, Adapta; format: biochemical
[23] = target: ACVRL1 (ALK1) (Homo sapiens, UniProt P37023); experiment: SelectScreen kinase profiling, LanthaScreen binding
[24] = target: ABL1 (Homo sapiens, UniProt P00519); experiment: SelectScreen kinase profiling, ZLYTE; format: biochemical; details: ABL1, 10 µM
[25] = target: DDR2 T654M (Homo sapiens, UniProt Q16832, T654M); experiment: SelectScreen kinase profiling, LanthaScreen binding
[26] = target: MST4 (Homo sapiens, UniProt Q9P289); experiment: SelectScreen kinase profiling, ZLYTE; format: biochemical; details: MST4, 10 µM
[27] = target: MERTK (cMER) A708S (Homo sapiens, UniProt Q12866, A708S); experiment: SelectScreen kinase profiling, LanthaScreen binding
[28] = target: PRKCE (PKC epsilon) (Homo sapiens, UniProt Q02156); experiment: SelectScreen kinase profiling, ZLYTE; format: biochemical
[29] = target: KIT D816V (Homo sapiens, UniProt P10721, D816V); experiment: SelectScreen kinase profiling, LanthaScreen binding
[30] = target: MAPK12 (p38 gamma) (Homo sapiens, UniProt P53778); experiment: SelectScreen kinase profiling, ZLYTE; format: biochemical
[31] = target: PHKG2 (Homo sapiens, UniProt P15735); experiment: SelectScreen kinase profiling, ZLYTE; format: biochemical; details: PHKG2, 10 µM
[32] = target: PKN2 (PRK2) (Homo sapiens, UniProt Q16513); experiment: SelectScreen kinase profiling, LanthaScreen binding
[33] = target: AMPK (A2/B1/G2) (Homo sapiens, UniProt P54646); experiment: SelectScreen kinase profiling, ZLYTE; format: biochemical
[34] = target: JAK3 (Homo sapiens, UniProt P52333); experiment: SelectScreen kinase profiling, ZLYTE; format: biochemical; details: JAK3, 10 µM
[35] = target: DCAMKL1 (DCLK1) (Homo sapiens, UniProt O15075); experiment: SelectScreen kinase profiling, ZLYTE; format: biochemical
[36] = target: CSNK1A1L (Homo sapiens, UniProt Q8N752); experiment: SelectScreen kinase profiling, ZLYTE; format: biochemical
[37] = target: ERN1 (Homo sapiens, UniProt O75460); experiment: SelectScreen kinase profiling, LanthaScreen binding; details: ERN1, 10 µM
Sequence of ERN1 (O75460 19-977): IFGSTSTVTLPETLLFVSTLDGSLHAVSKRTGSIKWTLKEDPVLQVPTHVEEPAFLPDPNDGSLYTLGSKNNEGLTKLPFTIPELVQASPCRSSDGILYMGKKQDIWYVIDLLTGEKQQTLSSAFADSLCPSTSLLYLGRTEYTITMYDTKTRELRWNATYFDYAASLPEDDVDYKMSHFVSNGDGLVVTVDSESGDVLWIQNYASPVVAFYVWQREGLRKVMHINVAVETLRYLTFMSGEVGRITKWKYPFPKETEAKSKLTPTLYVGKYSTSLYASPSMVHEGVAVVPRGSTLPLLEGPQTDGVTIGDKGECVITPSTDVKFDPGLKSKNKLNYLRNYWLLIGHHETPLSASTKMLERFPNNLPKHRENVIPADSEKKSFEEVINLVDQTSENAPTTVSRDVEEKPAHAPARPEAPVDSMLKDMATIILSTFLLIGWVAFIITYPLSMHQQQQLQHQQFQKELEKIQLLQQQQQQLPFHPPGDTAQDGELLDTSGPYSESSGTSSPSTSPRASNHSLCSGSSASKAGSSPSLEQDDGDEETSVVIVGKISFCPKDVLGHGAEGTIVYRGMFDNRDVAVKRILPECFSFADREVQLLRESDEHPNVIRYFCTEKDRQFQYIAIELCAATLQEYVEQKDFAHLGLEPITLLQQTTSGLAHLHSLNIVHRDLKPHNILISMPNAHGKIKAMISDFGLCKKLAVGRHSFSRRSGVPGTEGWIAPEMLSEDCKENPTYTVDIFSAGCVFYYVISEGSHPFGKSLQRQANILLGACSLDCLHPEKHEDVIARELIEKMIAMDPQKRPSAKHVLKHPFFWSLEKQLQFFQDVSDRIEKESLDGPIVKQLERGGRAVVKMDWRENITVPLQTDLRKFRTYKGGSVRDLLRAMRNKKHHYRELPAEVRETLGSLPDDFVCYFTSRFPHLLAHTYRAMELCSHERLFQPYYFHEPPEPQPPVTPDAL

Sequence of MAPK12 (p38 gamma) (P53778 whole entry): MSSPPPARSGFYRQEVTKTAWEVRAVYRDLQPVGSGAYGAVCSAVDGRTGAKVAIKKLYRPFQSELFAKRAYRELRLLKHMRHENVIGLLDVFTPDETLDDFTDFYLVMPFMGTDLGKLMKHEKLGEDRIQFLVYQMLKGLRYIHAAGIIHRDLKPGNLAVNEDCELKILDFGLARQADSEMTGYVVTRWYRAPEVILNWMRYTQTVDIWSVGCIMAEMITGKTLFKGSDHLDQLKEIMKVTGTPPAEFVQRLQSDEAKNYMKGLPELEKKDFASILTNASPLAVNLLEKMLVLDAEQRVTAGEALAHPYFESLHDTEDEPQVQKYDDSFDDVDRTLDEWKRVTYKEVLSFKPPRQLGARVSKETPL
Sequence of CDK1/cyclin B (P06493 whole entry): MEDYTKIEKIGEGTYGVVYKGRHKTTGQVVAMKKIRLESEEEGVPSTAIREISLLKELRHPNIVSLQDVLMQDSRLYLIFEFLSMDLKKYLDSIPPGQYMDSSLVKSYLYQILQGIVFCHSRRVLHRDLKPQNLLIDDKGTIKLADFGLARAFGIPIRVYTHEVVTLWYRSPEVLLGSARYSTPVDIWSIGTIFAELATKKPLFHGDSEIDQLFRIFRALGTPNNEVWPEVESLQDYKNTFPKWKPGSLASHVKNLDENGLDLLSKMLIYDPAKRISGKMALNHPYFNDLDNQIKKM
Sequence of CDK1/cyclin B (P14635 whole entry partner): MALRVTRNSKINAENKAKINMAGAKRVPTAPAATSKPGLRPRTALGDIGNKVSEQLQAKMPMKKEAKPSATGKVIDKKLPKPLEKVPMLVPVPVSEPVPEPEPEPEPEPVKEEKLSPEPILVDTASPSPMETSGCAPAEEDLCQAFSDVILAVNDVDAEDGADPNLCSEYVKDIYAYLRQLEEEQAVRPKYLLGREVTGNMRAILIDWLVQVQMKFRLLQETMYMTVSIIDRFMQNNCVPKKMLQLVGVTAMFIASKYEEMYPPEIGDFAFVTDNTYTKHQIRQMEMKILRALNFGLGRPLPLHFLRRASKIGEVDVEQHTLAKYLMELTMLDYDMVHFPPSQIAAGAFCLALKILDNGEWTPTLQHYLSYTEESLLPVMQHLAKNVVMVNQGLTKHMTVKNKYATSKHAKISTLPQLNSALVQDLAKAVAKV
Sequence of EPHA7 (Q15375 28-998): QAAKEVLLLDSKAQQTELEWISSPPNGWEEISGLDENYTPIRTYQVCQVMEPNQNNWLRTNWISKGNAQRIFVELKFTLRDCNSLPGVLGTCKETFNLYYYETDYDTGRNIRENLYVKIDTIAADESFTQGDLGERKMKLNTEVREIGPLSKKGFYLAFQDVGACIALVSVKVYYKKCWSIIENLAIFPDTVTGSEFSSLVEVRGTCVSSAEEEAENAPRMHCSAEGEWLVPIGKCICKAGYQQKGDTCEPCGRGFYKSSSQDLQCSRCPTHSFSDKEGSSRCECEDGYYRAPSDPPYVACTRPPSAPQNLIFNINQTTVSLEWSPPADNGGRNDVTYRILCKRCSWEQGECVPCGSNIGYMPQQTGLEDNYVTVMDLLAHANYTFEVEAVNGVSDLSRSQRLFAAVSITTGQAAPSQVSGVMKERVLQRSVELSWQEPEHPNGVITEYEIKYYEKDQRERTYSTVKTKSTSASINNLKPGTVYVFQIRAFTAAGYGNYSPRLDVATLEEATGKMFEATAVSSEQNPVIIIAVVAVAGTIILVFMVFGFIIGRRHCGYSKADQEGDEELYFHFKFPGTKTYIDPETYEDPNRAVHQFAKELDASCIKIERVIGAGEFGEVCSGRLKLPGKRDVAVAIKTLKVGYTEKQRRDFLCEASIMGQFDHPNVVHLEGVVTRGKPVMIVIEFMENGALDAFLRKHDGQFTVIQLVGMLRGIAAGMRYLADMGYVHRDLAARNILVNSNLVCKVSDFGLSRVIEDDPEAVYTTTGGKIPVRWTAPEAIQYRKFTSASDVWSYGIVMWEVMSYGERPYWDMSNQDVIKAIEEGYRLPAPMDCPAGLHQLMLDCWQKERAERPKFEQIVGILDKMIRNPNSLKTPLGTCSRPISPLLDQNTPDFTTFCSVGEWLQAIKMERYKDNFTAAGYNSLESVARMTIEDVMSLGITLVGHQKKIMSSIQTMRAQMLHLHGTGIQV
Sequence of PRKCE (PKC epsilon) (Q02156 whole entry): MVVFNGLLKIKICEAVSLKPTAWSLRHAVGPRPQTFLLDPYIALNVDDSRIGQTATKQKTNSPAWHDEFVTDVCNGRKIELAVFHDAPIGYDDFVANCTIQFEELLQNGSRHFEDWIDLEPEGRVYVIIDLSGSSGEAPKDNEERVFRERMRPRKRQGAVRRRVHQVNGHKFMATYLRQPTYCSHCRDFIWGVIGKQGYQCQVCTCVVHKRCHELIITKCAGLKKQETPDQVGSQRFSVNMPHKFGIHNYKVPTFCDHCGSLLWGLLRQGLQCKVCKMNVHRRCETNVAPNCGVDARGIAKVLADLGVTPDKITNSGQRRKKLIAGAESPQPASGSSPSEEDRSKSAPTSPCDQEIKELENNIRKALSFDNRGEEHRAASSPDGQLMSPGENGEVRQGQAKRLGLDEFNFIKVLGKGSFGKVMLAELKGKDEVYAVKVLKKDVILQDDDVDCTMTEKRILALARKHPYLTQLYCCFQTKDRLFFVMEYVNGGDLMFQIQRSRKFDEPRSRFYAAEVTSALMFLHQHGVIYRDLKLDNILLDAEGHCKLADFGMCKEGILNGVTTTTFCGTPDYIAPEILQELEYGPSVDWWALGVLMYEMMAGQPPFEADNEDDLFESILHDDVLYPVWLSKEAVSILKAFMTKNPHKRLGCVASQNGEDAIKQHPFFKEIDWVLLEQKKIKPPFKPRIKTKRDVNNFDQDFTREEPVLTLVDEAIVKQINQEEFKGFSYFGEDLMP
Sequence of MERTK (cMER) A708S (Q12866 21-999 A708S): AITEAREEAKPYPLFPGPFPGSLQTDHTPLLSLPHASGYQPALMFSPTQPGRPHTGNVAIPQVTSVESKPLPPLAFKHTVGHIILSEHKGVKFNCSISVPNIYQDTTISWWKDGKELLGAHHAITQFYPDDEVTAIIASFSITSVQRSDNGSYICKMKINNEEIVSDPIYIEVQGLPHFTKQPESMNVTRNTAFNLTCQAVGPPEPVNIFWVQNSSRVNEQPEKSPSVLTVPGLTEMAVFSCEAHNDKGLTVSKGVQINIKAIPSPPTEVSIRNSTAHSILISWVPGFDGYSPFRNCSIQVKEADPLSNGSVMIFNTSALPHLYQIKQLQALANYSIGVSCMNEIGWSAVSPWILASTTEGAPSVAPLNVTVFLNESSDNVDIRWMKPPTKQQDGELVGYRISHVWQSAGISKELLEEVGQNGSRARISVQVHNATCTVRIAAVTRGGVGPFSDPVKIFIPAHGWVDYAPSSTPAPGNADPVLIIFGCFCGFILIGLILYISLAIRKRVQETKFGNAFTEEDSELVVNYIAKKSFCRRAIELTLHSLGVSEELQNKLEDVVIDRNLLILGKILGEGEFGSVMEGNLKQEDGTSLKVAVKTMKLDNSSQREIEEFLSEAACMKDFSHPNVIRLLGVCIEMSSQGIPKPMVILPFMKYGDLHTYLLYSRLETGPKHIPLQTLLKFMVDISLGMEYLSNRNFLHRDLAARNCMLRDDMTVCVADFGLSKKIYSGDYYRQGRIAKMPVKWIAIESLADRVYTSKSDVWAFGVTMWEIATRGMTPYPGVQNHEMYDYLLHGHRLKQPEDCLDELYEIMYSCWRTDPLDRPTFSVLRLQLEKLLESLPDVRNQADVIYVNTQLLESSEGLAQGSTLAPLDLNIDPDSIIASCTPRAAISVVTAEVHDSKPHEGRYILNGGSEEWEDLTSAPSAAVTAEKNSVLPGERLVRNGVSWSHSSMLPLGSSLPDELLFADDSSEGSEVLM

## O=C(c1ccc(/C=C/c2n[nH]c3ccccc23)cc1)N1CCNCC1 [KW-2449]
[1]
  inhibition at 10 µM: 100%
[2]
  inhibition at 10 µM: 5%
[3]
  inhibition at 10 µM: 88%
[4]
  inhibition at 10 µM: -3%
[5]
  pIC50: 5.74
[6]
  pIC50: 5.76
[7]
  pIC50: < 5.00
[8]
  pIC50: < 5.00
[9]
  inhibition at 10 µM: 85%
[10]
  inhibition at 10 µM: 99%
[11]
  inhibition at 10 µM: 9%
[12]
  inhibition at 10 µM: 9%
[13]
  inhibition at 10 µM: 84%
[14]
  inhibition at 10 µM: 88%
[15]
  inhibition at 10 µM: 99%
[16]
  inhibition at 10 µM: -30%
[17]
  inhibition at 10 µM: 97%
[18]
  inhibition at 10 µM: -1%
[19]
  inhibition at 10 µM: 29%
[20]
  inhibition at 10 µM: 66%
[21]
  inhibition at 10 µM: 13%
[22]
  inhibition at 10 µM: 4%
[23]
  inhibition at 10 µM: 86%
[24]
  inhibition at 10 µM: 100%
[25]
  inhibition at 10 µM: 84%
[26]
  inhibition at 10 µM: 92%
[27]
  inhibition at 10 µM: 74%
[28]
  inhibition at 10 µM: 10%
[29]
  inhibition at 10 µM: 40%
[30]
  inhibition at 10 µM: 23%
[31]
  inhibition at 10 µM: 99%
[32]
  inhibition at 10 µM: 65%
[33]
  inhibition at 10 µM: 97%
[34]
  inhibition at 10 µM: 98%
[35]
  inhibition at 10 µM: 57%
[36]
  inhibition at 10 µM: 20%
[37]
  inhibition at 10 µM: 32%
